In publication PMC9023740, “Mucin-Type O-Glycosylation Proximal to β-Secretase Cleavage Site Affects APP Processing and Aggregation Fate” (Frontiers in Chemistry, 2022):

Tests used:
Aβ40 = target: T1, Aβ40 (Homo sapiens, UniProt P05067); test: ThT aggregation kinetics assay of Aβ40 with APP (glyco)peptides; conditions: 50 mM phosphate buffer pH 7.4, 20 µM ThT, 37°C
T1 construct: Aβ40 peptide was synthesized on a PS3 solid phase peptide synthesizer; made in house; host or cells: chemical solid-phase peptide synthesis (Fmoc), no expression host
Protocol: Lyophilized peptide powder was dissolved in aqueous NaOH solution (2 mM), and the pH was adjusted to ∼11 by using 100 mM NaOH solution. The solution was sonicated for 1 h in an ice−water bath and then filtered through a 0.22 μm filter (Millipore) and kept on ice before use. The concentration of the peptide solution was determined by using the tyrosine UV absorbance at 280 nm (ε = 1280 M^−1 cm^−1).
The aggregation kinetics of Aβ40 in the absence and presence of APP (glyco)peptides was performed using ThT binding assay. The monomerized Aβ40 peptide solution was diluted to a final concentration of 10 µM in 50 mM phosphate buffer (pH 7.4) and 20 µM ThT dye. For the co-incubation assays with APP (glyco)peptides, APP stock solutions of 120 µM were added to the prepared Aβ40 for final (glyco) peptide concentrations of 10 µM or 50 µM and Aβ40 concentration of 10 µM in 50 mM phosphate buffer (pH 7.4) with 20 µM ThT dye. […] The plate was sealed with a microplate cover and loaded into a Gemini SpectraMax EM fluorescence plate reader (Molecular Devices, Sunnyvale, CA) and incubated at 37°C. The ThT fluorescence was measured from the bottom of the plate at 10 min intervals, with 5 s of shaking, and with an excitation and emission wavelengths of 440 and 480 nm, respectively. […]
°C. ThT fluorescence was measured in 10 minute intervals.

[1] = Analytical RP-HPLC retention time, read as hydrophobicity/hydrophilicity; format: physicochemical; conditions: C18 (Phenomenex Aeris Peptide C18 150 x 4.6 mm, 0.8 ml/min), 0.1% TFA water/acetonitrile, 0-60% B over 30 min, 214 nm, Supplementary S2-S9
Protocol: Purification of all (glyco)peptides and their corresponding analyses were performed on a 1,260 Agilent Infinity system. The analytical RP-HPLC method uses a Phenomenex Aeris Peptide C18 column (150 mm × 4.6 mm, 3.6 μm, 100 Å) at 0.8 ml/min flow rate or a Vydac Denali C18 column (250 mm × 4.6 mm, 5 μm, 120Å) at 1 ml/min flow rate, with 0.1% TFA in water (A) and 0.1% TFA in acetonitrile (B) as the eluents. The elution gradient for analytical RP-HPLC purification was 0–60% B over 30 min. The preparative RP-HPLC method uses the Grace Vydac monomeric C18 column (250 mm × 22 mm, 15–20 μm, 300Å) at 10 ml/min flow rate, with 0.1% TFA in water (A) and 0.1% TFA in acetonitrile (B) as the eluents. The elution gradient for preparative RP-HPLC purification was 0–50% over 110 min. The (glyco)peptides were detected at 214 nm by using a UV-Vis detector (Agilent 1,260 Infinity DAD). Purified (glyco)peptides were characterized by matrix-assisted laser desorption ionization time-of-flight mass spectrometry (MALDI-TOF MS) with a Voyager-DE STR system or a Bruker Microflex system, using α-cyano-4-hydroxycinnamic acid as matrix.
Automated solid-phase peptide synthesis (SPPS) approach on Tentagel S RAM resin was used to assemble the APP (glyco)peptides. […]

[2] = CD spectroscopy, secondary structure content by BeStSel; format: physicochemical; conditions: CD, BeStSel, 0.065 mg/ml, 25°C
Protocol: All (glyco)peptides were analyzed for their secondary structure using circular dichroism (CD) spectroscopy on a Jasco-810 spectropolarimeter (Jasco, Easton, MD) in three solvent systems: water, 10 mM sodium phosphate buffer (pH 7.4), and 50% trifluoroethanol (TFE) in water (v/v) mixture. The CD spectra were recorded using a quartz cell of 1 mm optical path length over a wavelength range of […] with a scanning speed of 100 nm/min and a response time of 4 s at 25°C. A concentration of 0.065 mg/ml, determined using the analytical RP-HPLC method, gave the […] signal-to-noise ratio for all (glyco)peptides. All spectra were baseline-corrected to account for the signal contribution from solvent and then converted into molar ellipticity (deg cm^2 dmol^−1) ([Sreerama and Woody, 2000]). Lastly, the percentages of all secondary structures were determined using the BeStSel method ([Micsonai et al., 2018]; [Singh et al., 2021]).
To study the role of O-glycosylation on the conformation of APP glycopeptides, circular dichroism (CD) spectroscopy was used to probe the secondary structure in three different solvents, water, sodium phosphate buffer (10 mM, pH 7.4), and 50% trifluoroethanol (TFE) in water (v/v) (Figure 1). The spectra were further analysed for secondary structure estimations by Beta Structure Selection (BeStSel) method, specifically designed for the analysis of beta sheet-rich proteins (Table 2) ([Micsonai et al., 2015], [2018]).

[3] = target: T2, Recombinant human BACE-1 (rhBACE-1) (Homo sapiens, UniProt P56817); test: Proteolytic cleavage of APP (glyco)peptides by BACE-1, RP-HPLC peak integration; format: biochemical; conditions: 100 μM substrate, 50 nM rhBACE-1, 0.1 M sodium acetate pH 4.0, 24 h, 37°C, dark; RP-HPLC peak integration at 214 nm, averaged from two injections, SD <5%
T2 construct: purchased R&D Systems #ES004 and #931-AS, respectively (so in the source)
Protocol: All APP-based substrates were prepared as 10 mM stocks in DMSO. Before proteolysis, the activity of BACE-1 was verified by the reaction with the fluorogenic BACE-1substrate Mca-[…](Dnp)RR-NH2 ([Koike et al., 1999]) as per the manufacturer’s instructions. For the proteolysis assay, APP-based substrates were diluted in BACE-1 activity buffer (0.1 M sodium acetate, pH 4.0) to the final assay concentration of 100 μM. BACE-1 was diluted to 50 nM final concentration. Reactions were incubated for 24 h at 37°C in the dark. After the incubation period, the enzyme cleavage solutions containing APP-based substrates and BACE-1 were analyzed using the analytical RP-HPLC method on the Aeris C18 column with 0.1% TFA in water (A) and 0.1% TFA in acetonitrile (B) as eluents and 0–60% B as the elution gradient over 30 min with a flow rate of 0.8 ml/min, and detection at 214 nm or the Vydac Denali C18 column with 0.1% TFA in water (A) and 0.1% TFA in acetonitrile (B) as eluents and 0–60% B as the elution gradient over 30 min with a flow rate of 1 ml/min, and detection at 214 nm. The identity of intact and cleaved (N- and C-terminal) fragments of (glyco)peptides in the absence and presence of BACE-1 (β-secretase) was confirmed by MALDI-TOF and their percentages were evaluated by the integration of the RP-HPLC peaks (averaged from two injections).
Glycosylation can alter substrate recognition and impact enzyme activity in either a positive (enhancing) or negative (inhibiting) manner ([Goettig, 2016]; [Goth et al., 2018]). The mucin-type O-linked glycosylation of a protein may not only affect its conformation but also affect its transport and localization in the cell ([Matsuura et al., 1989]; [Chen et al., 2002]). Proteases are highly regulated by post-translational modifications and drive fate, localization, and activity of many proteins ([Bond, 2019]). Certain mutations can also affect the subcellular localization of the cleavage event by crucial proteases and mediate a different cellular mechanism for the protein ([Haass et al., 1995]). […] Therefore, similar enzyme cleavage assays with BACE-1 were set up to explore the effect of the Swedish mutation, length of the amino acid sequence, glycan position and valency on the proteolytic susceptibility of 3–12. BACE1 produced two fragments upon cleavage of (glyco)peptides, for which yields were determined after 24 h treatment. The yields of intact peptide and fragments were evaluated by the RP-HPLC peaks integration (Table 3, and the Supplementary Material S20–S32).
3. Enzyme cleavage assays with APP (glyco)peptides 3-12 by RP-HPLC and MALDI-TOF MS
For the BACE1 enzyme cleavage assay, APP-based (glyco)peptide substrates were diluted in BACE1 activity buffer and incubated with BACE1 for 24 h at 37 °C in the dark. After the incubation period, the enzyme cleavage solutions containing APP-based (glyco)peptide substrates and BACE1 were analyzed using analytical RP-HPLC.
RP-HPLC gradient on Phenomenex Aeris Peptide C18 column (150 x 4.6 mm, 3.6 µm, 100Å):
Eluents were 0.1% TFA in water (A) and 0.1% TFA in acetonitrile (B). The elution gradient was 0-60%B in 30 minutes with a flow rate of 0.8 mL/min. Detection was at λ = 214 nm.
S*/T*= Ser(-α-GalNAc) 1/Thr(-α-GalNAc) 2
(a) APP665-680, 3 in activity buffer
(b) APP665-680 (3) + BACE1 in activity buffer […]

[4] = (B) 10 mM sodium phosphate buffer, pH 7.4

T1 sequence (P05067 672-711 limits assumed): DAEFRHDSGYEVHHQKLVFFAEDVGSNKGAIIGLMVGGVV
T2 sequence (P56817 46-457 limits assumed): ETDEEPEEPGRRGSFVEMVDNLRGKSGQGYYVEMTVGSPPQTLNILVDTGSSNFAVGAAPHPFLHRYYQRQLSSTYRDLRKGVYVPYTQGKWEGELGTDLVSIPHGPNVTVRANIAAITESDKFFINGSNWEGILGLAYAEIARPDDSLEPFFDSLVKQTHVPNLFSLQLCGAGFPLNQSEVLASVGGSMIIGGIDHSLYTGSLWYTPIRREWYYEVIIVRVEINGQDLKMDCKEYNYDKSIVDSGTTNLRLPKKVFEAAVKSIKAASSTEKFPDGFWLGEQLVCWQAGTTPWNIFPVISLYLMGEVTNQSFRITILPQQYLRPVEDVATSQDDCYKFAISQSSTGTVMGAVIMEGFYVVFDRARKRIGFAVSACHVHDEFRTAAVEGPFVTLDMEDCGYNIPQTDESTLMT

For `CC(=O)N[C@H]1C(O)O[C@H](CO)[C@H](O)[C@@H]1O` (mixture of isomers) [GalNAc, N-acetylgalactosamine], the “Δt50 (t50 with additive - Aβ40 t50)” value (Aβ40; additive 10 and 50 µM, Aβ40 10 µM) was under 0.5 h.

For “Aβ40: amyloid-β 40 peptide made by Fmoc SPPS, model peptide for studying protein aggregation”, the “half time (t 50) of the growth phase of Aβ40 amyloidogenesis” value (Aβ40; Aβ40 10 μM alone, triplicate) was “approximately 8 h”.

In the case of “IKT*EEISEVKM∼DAEFRHDSG [compound 8, native APP 661-680 glycopeptide with O-GalNAc on Thr^663]”, the “RP-HPLC t R” value [1] is reported as 14.4 min, the “RC (%) random coil” value ([2]; (A) water) is reported as 87.4% and the “α-H (%) α-helix” value ([2]; (A) water) is reported as 1.4%. The “β-AP (%) anti-parallel β-sheet” value ([2]; (A) water) was 5.4%, the “β-P (%) parallel β-sheet” value ([2]; (A) water) was 0.0% and the “β-T (%) β-turn” value ([2]; (A) water) was 5.7%. For the same compound, the “RC (%) random coil” value [2, 4] was 30.4%, the “α-H (%) α-helix” value [2, 4] was 8.8% and the “β-AP (%) anti-parallel β-sheet” value [2, 4] was 42.6%. The “β-P (%) parallel β-sheet” value [2, 4] was 0.0%, the “β-T (%) β-turn” value [2, 4] was 18.3% and the “RC (%) random coil” value ([2]; (C) TFE/water = 1:1 (v/v)) was 8.3%. For the same compound, the “α-H (%) α-helix” value ([2]; (C) TFE/water = 1:1 (v/v)) was 85.7%, the “β-AP (%) anti-parallel β-sheet” value ([2]; (C) TFE/water = 1:1 (v/v)) was 0.0% and the “β-P (%) parallel β-sheet” value ([2]; (C) TFE/water = 1:1 (v/v)) was 0.0%. The “β-T (%) β-turn” value ([2]; (C) TFE/water = 1:1 (v/v)) was 6.0%, the “BACE-1 activity, Cleaved (%)” value [3] was 8.46% and the “BACE-1 activity, Recovered (%)” value [3] was 91.5%.
